From PMC12238850, “Molecular determinants for recognition of serotonylated chromatin” (Nucleic Acids Research, 2025)
Residue numbers refer to the chain shown, from its start. Read-outs that look alike come from different tables or passages of the source.

How the values were obtained:
Format in all cases: binding
[1] = target: T1, TAF3 P881F (GST-tagged PHD) (Mus musculus, UniProt Q5HZG4, P881F); assay: ITC of GST-tagged Taf3-PHD P881F
T1 construct: Mus musculus Taf3-PHD domain (residues 857–924); made in house; host or cells: E. coli BL21(DE3)
T1 sequence (Q5HZG4 857-924 P881F): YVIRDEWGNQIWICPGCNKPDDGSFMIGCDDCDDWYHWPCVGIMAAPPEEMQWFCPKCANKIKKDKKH
Text: (§1) The coding sequences of Mus musculus Taf3-PHD domain (residues 857–924) and Homosapiens PHF2 (1–66), PHF8 (37–102), and BPTF(2) (2865–2921) were cloned into the pGEX2T-derived vector, pRP265NB, for bacterial expression of GST-tagged proteins. Note that the PHD fingers of M. musculus Taf3 and H. sapiens TAF3 differ in a single amino acid. A901 in mouse corresponds to T899 in human. Here, amino acid numbering corresponds to mouse Taf3 isoform 1 with UniProt ID: Q5HZG4, accessible at https://www.uniprot.org/uniprotkb/Q5HZG4/entry. Single or double mutations were introduced by mutagenesis polymerase chain reaction and validated by Sanger sequencing. A single colony of freshly transformed BL21(DE3) Escherichia coli bacteria with the corresponding construct was grown in Luria broth (LB) medium supplemented with 50 μg/ml ampicillin until an OD600 of 0.7. […]
(§2) ITC experiments were performed at 20°C with a MicroCal VP-ITC microcalorimeter (Malvern) by sequential injection of 10 μl at 300 μM histone peptide during 20 s into the sample cell containing 30 or 15 μM of GST-Taf3 (wild type or mutant) or GST-BPTF, GST-PHF2, and GST-PHF8 PHDs in ITC buffer (100 mM NaCl, 20 mM Tris–HCl, pH 7.5). […] ITC data were subsequently analysed and fitted with the one-site binding model in the MicroCal ITC Origin Analysis software 7.0 (Table 1, Figs 3B and 5A, Supplementary Table S3, and Supplementary Fig. S10). […]

[2] = target: T2, TAF3 W894I (GST-tagged PHD) (Mus musculus, UniProt Q5HZG4, W894I); assay: ITC of GST-tagged Taf3-PHD W894I
T2 construct: Mus musculus Taf3-PHD domain (residues 857–924); made in house; host or cells: E. coli BL21(DE3)
T2 sequence (Q5HZG4 857-924 W894I): T1 sequence (Q5HZG4 857-924 P881F) with F25P, W38I
Text: as §1, §2

[3] = target: T3, TAF3 W894F (GST-tagged PHD) (Mus musculus, UniProt Q5HZG4, W894F); assay: ITC of GST-tagged Taf3-PHD W894F
T3 construct: Mus musculus Taf3-PHD domain (residues 857–924); made in house; host or cells: E. coli BL21(DE3)
T3 sequence (Q5HZG4 857-924 W894F): T1 sequence (Q5HZG4 857-924 P881F) with F25P, W38F
Text: as §1, §2

[4] = ITC, 20°C, 100 mM NaCl, 20 mM Tris–HCl, pH 7.5, one-site model, ± = standard error of fit, read-out: K D

Row | Compound | Kd [1] [nM] | Kd [2] [nM] | Kd [3] [nM] | Kd [1, 4] [nM] | Kd [2, 4] [nM] | Kd [3, 4] [nM]
1 | C[C@H](N)C(=O)N[C@@H](CCCNC(=N)N)C(=O)N[C@H](C(=O)N[C@@H](CCCC[N+](C)(C)C)C(=O)N[C@@H](CCC(=O)NCCc1c[nH]c2ccc(O)cc12)C(=O)N[C@H](C(=O)N[C@@H](C)C(=O)N[C@@H](CCCNC(=N)N)C(=O)N[C@@H](CCCCN)C(=O)N[C@@H](CO)C(=O)N[C@H](C(=O)NCC(N)=O)[C@@H](C)O)[C@@H](C)O)[C@@H](C)O [H3K4me3Q5ser] | 124 ± 7 | 106 ± 8 | 102 ± 1 | – | – | –
2 | C[C@H](N)C(=O)N[C@@H](CCCNC(=N)N)C(=O)N[C@H](C(=O)N[C@@H](CCCC[N+](C)(C)C)C(=O)N[C@@H](CCC(N)=O)C(=O)N[C@H](C(=O)N[C@@H](C)C(=O)N[C@@H](CCCNC(=N)N)C(=O)N[C@@H](CCCCN)C(=O)N[C@@H](CO)C(=O)N[C@H](C(=O)NCC(N)=O)[C@@H](C)O)[C@@H](C)O)[C@@H](C)O [H3K4me3] | – | – | – | 130 ± 4 | 279 ± 17 | 126 ± 12
